Data on 43 molecules can be found in ChEMBL document CHEMBL1129506, “2,4-Diarylpyrrolidine-3-carboxylic acids--potent ETA selective endothelin receptor antagonists. 1. Discovery of A-127722” (J Med Chem, 1996).

A word on the IC50: it is the concentration that gives 50% inhibition. Higher therefore signals weaker potency.

One assay deals with T1, Endothelin-1 receptor (Rattus norvegicus, UniProt P26684).
T1 sequence (P26684 whole entry): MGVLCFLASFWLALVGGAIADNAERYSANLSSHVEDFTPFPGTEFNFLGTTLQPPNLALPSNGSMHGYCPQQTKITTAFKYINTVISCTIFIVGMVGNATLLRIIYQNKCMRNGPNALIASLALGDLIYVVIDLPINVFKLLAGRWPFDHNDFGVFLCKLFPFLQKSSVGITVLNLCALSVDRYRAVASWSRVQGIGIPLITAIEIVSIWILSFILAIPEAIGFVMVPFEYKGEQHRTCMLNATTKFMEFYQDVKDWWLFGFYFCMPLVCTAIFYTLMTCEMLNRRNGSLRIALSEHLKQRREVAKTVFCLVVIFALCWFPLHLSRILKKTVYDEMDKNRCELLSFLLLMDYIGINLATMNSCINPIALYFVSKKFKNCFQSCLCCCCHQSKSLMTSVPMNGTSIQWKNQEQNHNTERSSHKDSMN
Description: Inhibitory activity against the Endothelin A receptor of rat MMQ cells. It is filed as cell-based.

Assay [1] has as its target T2, Endothelin receptor type B (Sus scrofa, UniProt P35463).
T2 sequence (P35463 whole entry): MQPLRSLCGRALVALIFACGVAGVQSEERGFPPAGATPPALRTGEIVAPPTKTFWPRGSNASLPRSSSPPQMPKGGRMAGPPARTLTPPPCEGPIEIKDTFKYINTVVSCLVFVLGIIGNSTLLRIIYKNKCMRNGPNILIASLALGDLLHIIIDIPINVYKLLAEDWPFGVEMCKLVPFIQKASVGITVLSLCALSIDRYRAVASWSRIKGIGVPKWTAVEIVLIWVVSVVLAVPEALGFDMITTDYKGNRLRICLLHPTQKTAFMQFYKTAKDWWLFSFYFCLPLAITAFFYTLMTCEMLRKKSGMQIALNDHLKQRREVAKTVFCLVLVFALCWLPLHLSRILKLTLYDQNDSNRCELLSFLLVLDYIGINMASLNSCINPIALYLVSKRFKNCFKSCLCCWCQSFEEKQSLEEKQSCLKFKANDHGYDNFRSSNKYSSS
Description: Inhibitory activity measured against Endothelin B receptor binding to porcine cerebellum. It is filed as tissue-based.

The target in a further assay is T3, Endothelin receptor (Rattus norvegicus, UniProt P26684+P21451).
T3 sequence (P26684 whole entry): T1 sequence (P26684 whole entry)
T3 sequence (P21451 whole entry): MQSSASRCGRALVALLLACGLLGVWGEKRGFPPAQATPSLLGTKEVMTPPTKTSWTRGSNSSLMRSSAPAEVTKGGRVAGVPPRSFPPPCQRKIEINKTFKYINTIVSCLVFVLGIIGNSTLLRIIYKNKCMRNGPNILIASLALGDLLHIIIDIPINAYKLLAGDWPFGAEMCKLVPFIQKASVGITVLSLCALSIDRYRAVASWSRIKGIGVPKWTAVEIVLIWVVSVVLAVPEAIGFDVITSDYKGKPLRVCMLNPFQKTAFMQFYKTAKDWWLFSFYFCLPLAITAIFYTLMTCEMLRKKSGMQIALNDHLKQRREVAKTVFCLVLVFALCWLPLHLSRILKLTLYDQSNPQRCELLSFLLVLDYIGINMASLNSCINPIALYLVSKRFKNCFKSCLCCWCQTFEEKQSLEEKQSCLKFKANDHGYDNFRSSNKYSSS
Nature of the assay: Inhibition of phosphoinositol hydrolysis of MMQ cells. It is filed as functional, cell-based.

Regarding `COc1ccc([C@@H]2[C@@H](C(=O)O)[C@H](c3ccc4c(c3)OCO4)CN2CCc2ccccn2)cc1`, the figures for the IC50 (on Endothelin-1 receptor; in assay [1]) were 900 nM and 2360 nM, respectively.
For `CCCC#CCN1C[C@@H](c2ccc3c(c2)OCO3)[C@H](C(=O)O)[C@H]1c1ccc(OC)cc1`, in that order: 765 nM and 3590 nM.
For `COc1ccc([C@@H]2[C@@H](C(=O)O)[C@H](c3ccc4c(c3)OCO4)CN2C(=O)Nc2ccccc2)cc1`, the IC50 was 2430 nM on Endothelin-1 receptor and 3510 nM in assay [1].
On to `COc1ccc([C@@H]2[C@@H](C(=O)O)[C@H](c3ccc4c(c3)OCO4)CN2CC(=O)NCC(C)C)cc1`, for which the IC50 against Endothelin-1 receptor turned out to be 8.2 nM; in assay [1] it was 184 nM; against Endothelin receptor, 9.22 nM.
On the same counts, the results for `COc1ccc([C@@H]2[C@@H](C(=O)O)[C@H](c3ccc4c(c3)OCO4)CN2CC(=O)N(CC(C)C)CC(C)C)cc1` are 16.2 nM, 1820 nM and 0.6 nM.
Take `CCCCCCN1C[C@@H](c2ccc3c(c2)OCO3)[C@H](C(=O)O)[C@H]1c1ccc(OC)cc1`: the IC50 at Endothelin-1 receptor turned out to be 2870 nM; in assay [1], 23300 nM.
For `CCCCNC(=O)N1C[C@@H](c2ccc3c(c2)OCO3)[C@H](C(=O)O)[C@H]1c1ccc(OC)cc1`, in that order: 684 nM and 11100 nM.
For the molecule `CCCCN(CCCC)CCN1C[C@@H](c2ccc3c(c2)OCO3)[C@H](C(=O)O)[C@H]1c1ccc(OC)cc1`, the figures for the IC50 (on Endothelin-1 receptor; in assay [1]) were 794 nM and 1590 nM, respectively.
On the same counts, the results for `CCCC(CCC)C(=O)CN1C[C@@H](c2ccc3c(c2)OCO3)[C@H](C(=O)O)[C@H]1c1ccc(OC)cc1` are 85 nM and 283 nM.
Take `COc1ccc([C@@H]2[C@@H](C(=O)O)[C@H](c3ccc4c(c3)OCO4)CN2CC(=O)NC2CCCC2)cc1`: the concentration for half-maximal inhibition (IC50) against Endothelin-1 receptor came to 16.2 nM; in assay [1], 307 nM; at Endothelin receptor, 23.8 nM.
Take `COc1ccc([C@@H]2[C@@H](C(=O)O)[C@H](c3ccc4c(c3)OCO4)CN2CCOCC(C)C)cc1`: the results for the IC50 (at Endothelin-1 receptor; in assay [1]) were 437 nM and 8380 nM, respectively.
For `COc1ccc([C@@H]2[C@@H](C(=O)O)[C@H](c3ccc4c(c3)OCO4)CN2CC(=O)N(C)Cc2ccccc2)cc1`, in that order: 769 nM and 1680 nM.
For `COc1ccc([C@@H]2[C@@H](C(=O)O)[C@H](c3ccc4c(c3)OCO4)CN2C(=O)c2ccco2)cc1`, in that order: 5220 nM and 40300 nM.
For `COc1ccc([C@@H]2[C@@H](C(=O)O)[C@H](c3ccc4c(c3)OCO4)CN2CC(=O)N(CCC(C)C)CCC(C)C)cc1`, in that order: 0.43 nM and 41 nM.
Turning to `COc1ccc([C@@H]2[C@@H](C(=O)O)[C@H](c3ccc4c(c3)OCO4)CN2CC(=O)N(C)c2ccccc2)cc1`, the half-inhibitory concentration (IC50) came out at 50.2 nM against Endothelin-1 receptor and 1180 nM in assay [1].
On the same counts, the results for `CCCOCCN1C[C@@H](c2ccc3c(c2)OCO3)[C@H](C(=O)O)[C@H]1c1ccc(OC)cc1` are 108 nM and 4970 nM.
On the same counts, the results for `CCCCS(=O)(=O)N1C[C@@H](c2ccc3c(c2)OCO3)[C@H](C(=O)O)[C@H]1c1ccc(OC)cc1` are 1240 nM and 6180 nM.
On the same counts, the results for `CC[S+]([O-])CCN1C[C@@H](c2ccc3c(c2)OCO3)[C@H](C(=O)O)[C@H]1c1ccc(OC)cc1` (stereo partly specified) are 44 nM and 834 nM.
In assay [1], `COc1ccc([C@@H]2[C@@H](C(=O)O)[C@H](c3ccc4c(c3)OCO4)CN2CC(N)=O)cc1` gave a concentration for half-maximal inhibition (IC50) of 3270 nM. That is a single-digit micromolar value.
Consider `COc1ccc([C@@H]2[C@@H](C(=O)O)[C@H](c3ccc4c(c3)OCO4)CN2CC(=O)N2CCCCC2)cc1`, for which the half-inhibitory concentration (IC50) on Endothelin-1 receptor was determined as 350 nM; in assay [1], 3040 nM.
Consider `COc1ccc(NC(=O)N2C[C@@H](c3ccc4c(c3)OCO4)[C@H](C(=O)O)[C@H]2c2ccc(OC)cc2)cc1`, for which the IC50 against Endothelin-1 receptor amounted to 781 nM; in assay [1], 3790 nM.
For `COc1ccc([C@@H]2[C@@H](C(=O)O)[C@H](c3ccc4c(c3)OCO4)CN2CCOc2ccccc2)cc1`, in that order: 885 nM and 3400 nM.
In the case of `COc1ccc([C@@H]2[C@@H](C(=O)O)[C@H](c3ccc4c(c3)OCO4)CN2CC(=O)N(C)C2CCCCC2)cc1`, the IC50 was 23.8 nM on Endothelin-1 receptor, 806 nM in assay [1] and 2.06 nM against Endothelin receptor.
On to `COc1ccc([C@@H]2[C@@H](C(=O)O)[C@H](c3ccc4c(c3)OCO4)CN2C(=O)N2CCOCC2)cc1`, for which the half-maximal inhibitory concentration (IC50) against Endothelin-1 receptor worked out at 1080 nM; in assay [1], 5020 nM.
For `CCCCOCCN1C[C@@H](c2ccc3c(c2)OCO3)[C@H](C(=O)O)[C@H]1c1ccc(OC)cc1`, in that order: 220 nM and 3830 nM.
For `CCCS(=O)(=O)CCN1C[C@@H](c2ccc3c(c2)OCO3)[C@H](C(=O)O)[C@H]1c1ccc(OC)cc1`, in that order: 37 nM and 750 nM.
On the same counts, the results for `CCCCN(CCCC)C(=O)N1C[C@@H](c2ccc3c(c2)OCO3)[C@H](C(=O)O)[C@H]1c1ccc(OC)cc1` are 396 nM and 1470 nM.
For `COc1ccc([C@@H]2[C@@H](C(=O)O)[C@H](c3ccc4c(c3)OCO4)CN2Cc2ccc(F)cc2)cc1`, the IC50 was found to be 4320 nM against Endothelin-1 receptor and 7930 nM in assay [1].
On the same counts, the results for `C#CCN(C)C(=O)CN1C[C@@H](c2ccc3c(c2)OCO3)[C@H](C(=O)O)[C@H]1c1ccc(OC)cc1` are 106 nM and 4000 nM.
Consider `CCCCCN(C)C(=O)CN1C[C@@H](c2ccc3c(c2)OCO3)[C@H](C(=O)O)[C@H]1c1ccc(OC)cc1`, for which the concentration for half-maximal inhibition (IC50) on Endothelin-1 receptor was 5.78 nM; in assay [1], 624 nM; against Endothelin receptor, 5.64 nM.
`CCCCC(=O)CN1C[C@@H](c2ccc3c(c2)OCO3)[C@H](C(=O)O)[C@H]1c1ccc(OC)cc1`: the IC50 against Endothelin-1 receptor came to 163 nM; in assay [1] it was 2430 nM.
Regarding `COc1ccc([C@@H]2[C@@H](C(=O)O)[C@H](c3ccc4c(c3)OCO4)CN2C(=O)COc2ccc(F)cc2)cc1`, in assay [1], the IC50 was 12700 nM.
Regarding `CCCN(CCC)C(=O)CCN1C[C@@H](c2ccc3c(c2)OCO3)[C@H](C(=O)O)[C@H]1c1ccc(OC)cc1`, the IC50 at Endothelin-1 receptor is 121 nM; in assay [1], 4200 nM.
For `COCCNC(=O)CN1C[C@@H](c2ccc3c(c2)OCO3)[C@H](C(=O)O)[C@H]1c1ccc(OC)cc1`, in that order: 178 nM and 3730 nM.
For `COc1ccc([C@@H]2[C@@H](C(=O)O)[C@H](c3ccc4c(c3)OCO4)CN2C/C=C/CC(C)C)cc1`, in that order: 1630 nM and 27300 nM.
Regarding `COCCOCCN1C[C@@H](c2ccc3c(c2)OCO3)[C@H](C(=O)O)[C@H]1c1ccc(OC)cc1`, the results for the IC50 (on Endothelin-1 receptor; in assay [1]) were 682 nM and 3390 nM, respectively.
On the same counts, the results for `CCOCCN1C[C@@H](c2ccc3c(c2)OCO3)[C@H](C(=O)O)[C@H]1c1ccc(OC)cc1` are 520 nM and 9010 nM.
On the same counts, the results for `CCCCN(CCCC)CC(=O)N1C[C@@H](c2ccc3c(c2)OCO3)[C@H](C(=O)O)[C@H]1c1ccc(OC)cc1` are 6810 nM and 29400 nM.
In the case of `CCCCN(C(=O)CN1C[C@@H](c2ccc3c(c2)OCO3)[C@H](C(=O)O)[C@H]1c1ccc(OC)cc1)c1ccccc1`, the IC50 on Endothelin-1 receptor turned out to be 0.81 nM; in assay [1], 306 nM.
For `CCCCCN(CCCCC)C(=O)CN1C[C@@H](c2ccc3c(c2)OCO3)[C@H](C(=O)O)[C@H]1c1ccc(OC)cc1`, in that order: 0.56 nM and 313 nM.
In the case of `CCCCN(CCCC)C(=O)C(C)N1CC(c2ccc3c(c2)OCO3)C(C(=O)O)C1c1ccc(OC)cc1` (stereo unspecified), the IC50 against Endothelin-1 receptor stood at 0.46 nM; in assay [1], 315 nM; on Endothelin receptor, 1.34 nM.
As for `COc1ccc([C@@H]2[C@@H](C(=O)O)[C@H](c3ccc4c(c3)OCO4)CN2CC(=O)N(C)CC(C)(C)C)cc1`, the IC50 against Endothelin-1 receptor was found to be 112 nM; in assay [1], 1800 nM.
As for `CCCCN(CC)C(=O)CN1C[C@@H](c2ccc3c(c2)OCO3)[C@H](C(=O)O)[C@H]1c1ccc(OC)cc1`, the results for the IC50 (on Endothelin-1 receptor; in assay [1]; against Endothelin receptor) were 0.85 nM, 531 nM and 0.33 nM, respectively.
